Key:
Assay type in all cases: in vivo
Poa annua = assay: greenhouse post-emergence treatment, POAAN; conditions: Poa annua
Method: (§1) The culture containers used were plastic pots containing loamy sand with approximately 3.0% of humus as substrate. The seeds of the test plants were sown separately for each species.
(§2) For the post-emergence treatment, the test plants were grown to a plant height of from 3 to 15 cm, depending on the plant habit, and only then treated with the active compounds which had been suspended or emulsified in water. To this end, the test plants were either sown directly, and grown in the same containers, or they were first grown separately as seedlings and transplanted into the test containers a few days prior to treatment.
(§3) Depending on the species, the plants were kept at 10-25° C. and 20-35° C., respectively.
(§4) The test period extended over 2 to 4 weeks. During this time, the plants were tended and their response to the individual treatments was evaluated.
(§5) Evaluation was carried out using a scale from 0 to 100. 100 means no emergence of the plants, or complete destruction of at least the above-ground parts, and 0 means no damage or normal course of growth. A good herbicidal activity is given at values of at least 70, and very good herbicidal activity is given at values of at least 85.
(§6) The respective stated components A and B, and if appropriate, C were formulated as a 10% by weight strength emulsion concentrate and, with addition of the amount of solvent system, introduced into the spray liquor used for applying the active compound. In the examples, the solvent used was water.
(§7) In the examples below, using the method of S. R. Colby (1967) “Calculating synergistic and antagonistic responses of herbicide combinations”, Weeds 15, p. 22ff., the value E, which is expected if the activity of the individual active compounds is only additive, was calculated. E=X+Y−(X·Y/100) where X=effect in percent using herbicide A at an application rate a; • Y=effect in percent using herbicide B at application rate b; • E=expected effect (in %) of herbicide A+herbicide B at application rates a+b.

Stellaria media = assay: greenhouse post-emergence treatment, STEME; conditions: Stellaria media, sc, 504 h, STEME, 21 DAT
Method: as §1, §2, §3, §4, §5, §6, §7

Polygonum aviculare = assay: greenhouse post-emergence treatment, POLAV; conditions: POLAV
Method: as §1, §2, §3, §4, §5, §6, §7

Setaria viridis = assay: greenhouse post-emergence treatment, SETVI; conditions: Setaria viridis, sc, 504 h, SETVI, 21 DAT, solo metazachlor (SC 500 g/l) 31.25 gai/ha
Method: as §1
(§8) To this end, the test plants were either sown directly, and grown in the same containers, or they were first grown separately as seedlings and transplanted into the test containers a few days prior to treatment.
as §3, §4, §5
(§9) In the examples, the solvent used was water.
(§10) In the examples below, using the method of S. R. Colby (1967) “Calculating synergistic and antagonistic responses of herbicide combinations”, Weeds 15, p. […] E=X+Y−(X·Y/100) where X=effect in percent using herbicide A at an application rate a; • Y=effect in percent using herbicide B at application rate b; • E=expected effect (in %) of herbicide A+herbicide B at application rates a+b.

Matricaria chamomilla = assay: greenhouse post-emergence treatment, MATCH; conditions: Matricaria chamomilla; for inhibition at 500000 µg/mL (stock): sc, 504 h, MATCH, 21 DAT
Method: as §1, §2, §3, §4, §5, §6, §7

Polygonum convolvulus = assay: greenhouse post-emergence treatment, POLCO; conditions: Fallopia convolvulus; for inhibition at 500000 µg/mL (stock): sc, 504 h, POLCO, 21 DAT
Method: as §1, §2, §3, §4, §5, §6, §7

Digitaria sanguinalis = assay: greenhouse post-emergence treatment, DIGSA; conditions: Digitaria sanguinalis, sc, 504 h, DIGSA, 21 DAT
Method: as §1, §8, §3, §4, §5, §9, §10

Lolium multiflorum = assay: greenhouse post-emergence treatment, LOLMU; conditions: Lolium multiflorum, LOLMU; for inhibition at 500000 µg/mL (stock): sc, 504 h, 21 DAT
Method: as §1, §8, §3, §4, §5, §9, §10

Brachiaria decumbens = assay: greenhouse post-emergence treatment, BRADC; conditions: for inhibition at 500000 µg/mL (stock): sc, 504 h, 21 DAT
Method: as §1, §2, §3, §4, §5, §6, §7

Avena fatua = assay: greenhouse post-emergence treatment, AVEFA; conditions: Avena fatua, AVEFA; for inhibition at 500000 µg/mL (stock): sc, 504 h, 21 DAT; for pest or weed control at 12.5 g/ha: 480 h, 20 DAT
Method: as §1, §8, §3, §4, §5, §9, §10

Galium aparine = assay: greenhouse post-emergence treatment, GALAP; conditions: Galium aparine, 504 h, GALAP, 21 DAT, solo metazachlor (SC 500 g/l) 250 gai/ha
Method: as §1, §2, §3, §4, §5, §6, §7

Bromus sterilis = assay: greenhouse post-emergence treatment, BROST
Method: as §1, §8, §3, §4, §5, §9, §10

Papaver rhoeas = assay: greenhouse post-emergence treatment, PAPRH; conditions: Papaver rhoeas, 480 h, PAPRH, 20 DAT
Method: as §1, §2, §3, §4, §5, §6, §7

[1] = solo metazachlor (SC 500 g/l) 31.25 gai/ha
[2] = solo metazachlor (SC 500 g/l) 62.5 gai/ha
[3] = solo metazachlor (SC 500 g/l) 125 gai/ha
[4] = solo metazachlor (SC 500 g/l) 250 gai/ha
[5] = solo cycloxydim (EC 100 g/l) 12.5 gai/ha

Cc1cccc(C)c1N(Cn1cccn1)C(=O)CCl [metazachlor]
inhibition at 500000 µg/mL (stock) (Poa annua; 504 h, POAAN, 21 DAT, solo metazachlor (SC 500 g/l) 250 gai/ha): 85% | inhibition at 500000 µg/mL (stock) (Stellaria media; [1]): 0% | inhibition at 500000 µg/mL (stock) (Stellaria media; [2]): 0% | inhibition at 500000 µg/mL (stock) (Stellaria media; [3]): 25% | inhibition at 500000 µg/mL (stock) (Stellaria media; [4]): 35% | inhibition at 500000 µg/mL (stock) (Polygonum aviculare; Polygonum aviculare, 504 h, 21 DAT, solo metazachlor (SC 500 g/l) 125 gai/ha): 25% | % activity (Polygonum aviculare; metazachlor solo (SC 500 g/l), 31.25 gai/ha, 21 DAT): 20% | inhibition at 500000 µg/mL (stock) (Setaria viridis): 65% | inhibition at 500000 µg/mL (stock) (Matricaria chamomilla; [1]): 0% | inhibition at 500000 µg/mL (stock) (Matricaria chamomilla; [2]): 0% | inhibition at 500000 µg/mL (stock) (Matricaria chamomilla; [4]): 20% | inhibition at 500000 µg/mL (stock) (Polygonum convolvulus; [1]): 0% | inhibition at 500000 µg/mL (stock) (Polygonum convolvulus; [2]): 0% | inhibition at 500000 µg/mL (stock) (Polygonum convolvulus; [3]): 10% | inhibition at 500000 µg/mL (stock) (Polygonum convolvulus; [4]): 20% | inhibition at 500000 µg/mL (stock) (Digitaria sanguinalis; [1]): 0% | inhibition at 500000 µg/mL (stock) (Digitaria sanguinalis; [4]): 75% | inhibition at 500000 µg/mL (stock) (Lolium multiflorum; [1]): 30% | inhibition at 500000 µg/mL (stock) (Lolium multiflorum; [3]): 85% | inhibition at 500000 µg/mL (stock) (Lolium multiflorum; [4]): 85% | inhibition at 500000 µg/mL (stock) (Brachiaria decumbens; Urochloa decumbens, BRADC, solo metazachlor (SC 500 g/l) 31.25 gai/ha): 10% | inhibition at 500000 µg/mL (stock) (Brachiaria decumbens; Urochloa decumbens, BRADC, solo metazachlor (SC 500 g/l) 62.5 gai/ha): 20% | inhibition at 500000 µg/mL (stock) (Brachiaria decumbens; Urochloa decumbens, BRADC, solo metazachlor (SC 500 g/l) 125 gai/ha): 25% | inhibition at 500000 µg/mL (stock) (Brachiaria decumbens; Urochloa decumbens, BRADC, solo metazachlor (SC 500 g/l) 250 gai/ha): 60% | inhibition at 500000 µg/mL (stock) (Avena fatua; [2]): 10% | inhibition at 500000 µg/mL (stock) (Avena fatua; [3]): 0% | inhibition at 500000 µg/mL (stock) (Avena fatua; [4]): 10% | inhibition at 500000 µg/mL (stock) (Galium aparine): 85%

CCCC(=NOCC)C1=C(O)CC(C2CCCSC2)CC1=O (centres unmarked) [cycloxydim]
pest or weed control at 12.5 g/ha (Poa annua; 480 h): 0% | pest or weed control at 25 g/ha (Poa annua; 480 h): 0% | pest or weed control at 50 g/ha (Poa annua; 480 h): 0% | pest or weed control at 100 g/ha (Poa annua; 480 h): 0% | % activity (Polygonum aviculare; 20 DAT, solo cycloxydim (EC 100 g/l) 12.5 gai/ha): 0% | % activity (Polygonum aviculare; 20 DAT, solo cycloxydim (EC 100 g/l) 25 gai/ha): 0% | % activity (Polygonum aviculare; 20 DAT, solo cycloxydim (EC 100 g/l) 50 gai/ha): 0% | % activity (Polygonum aviculare; 20 DAT, solo cycloxydim (EC 100 g/l) 100 gai/ha): 0% | % activity (Polygonum aviculare; cycloxydim solo (EC 100 g/l), 12.5 gai/ha, 20 DAT): 0% | % activity (Polygonum aviculare; cycloxydim solo (EC 100 g/l), 25 gai/ha, 20 DAT): 0% | % activity (Polygonum aviculare; cycloxydim solo (EC 100 g/l), 100 gai/ha, 20 DAT): 0% | pest or weed control at 12.5 g/ha (Matricaria chamomilla; 480 h): 0% | pest or weed control at 25 g/ha (Matricaria chamomilla; 480 h): 0% | pest or weed control at 50 g/ha (Matricaria chamomilla; 480 h): 0% | pest or weed control at 100 g/ha (Matricaria chamomilla; 480 h): 0% | pest or weed control at 12.5 g/ha (Polygonum convolvulus; 480 h): 0% | pest or weed control at 25 g/ha (Polygonum convolvulus; 480 h): 0% | pest or weed control at 50 g/ha (Polygonum convolvulus; 480 h): 0% | pest or weed control at 100 g/ha (Polygonum convolvulus; 480 h): 0% | pest or weed control at 12.5 g/ha (Lolium multiflorum; 480 h, cycloxydim solo (EC 100 g/l), 12.5 gai/ha, 20 DAT): 90% | % activity (Brachiaria decumbens; BRADC, 20 DAT, solo cycloxydim (EC 100 g/l) 12.5 gai/ha): 65% | pest or weed control at 12.5 g/ha (Brachiaria decumbens; Urochloa decumbens, 480 h): 65% | pest or weed control at 12.5 g/ha (Avena fatua; [5]): 20% | pest or weed control at 12.5 g/ha (Avena fatua; cycloxydim solo (EC 100 g/l), 12.5 gai/ha): 20% | % activity (Bromus sterilis; BROST, 20 DAT, solo cycloxydim (EC 100 g/l) 12.5 gai/ha): 25% | pest or weed control at 12.5 g/ha (Bromus sterilis; Bromus sterilis, 480 h): 25% | pest or weed control at 12.5 g/ha (Papaver rhoeas; [5]): 0% | pest or weed control at 100 g/ha (Papaver rhoeas; solo cycloxydim (EC 100 g/l) 100 gai/ha): 0%
